Assays:
[1] = system: mouse androgenetic hair loss model; experiment: Hair growth observation in mouse androgenetic hair loss model (DHT-induced); type: in vivo; settings: C57BL/6 male mice, depilated back, FIG. 1
Protocol: (§1) Experimental animals: C57BL/6 male mice, 5-7 weeks old, weighing around 20 g were housed in a 12 hour light/12 hour dark environment, with free access to food and water. The experiment set up control group (CTRL); model group (DHT); A5-Low group (treated with Annexin A5, injected once every three days); and A5-High group (treated with Annexin A5, injected once a day). Each group consists of 6 mice.
(§2) Modeling and administration: Dihydrotestosterone (DHT) was used to induce the formation of the mouse androgenetic hair loss model. In addition to the control group, the other three groups of mice received subcutaneous injection of DHT solution (5 mg/mL) at the neck, 0.01 mL for each, for a total of 2 weeks. The control group was injected with an equal volume of physiological saline. After 2 weeks, all mice were shaved and their back hair was removed using a shaving knife. Then hair removal cream was used to further remove residual hair from the shaved area of the mice. After hair removal, both the control group and the model group were injected daily with […] of PBS in the hair removal area, divided into 10 injection points, with 20 μL per point. The A5-Low group received Annexin A5 treatment once every three days, while the A5-High group received Annexin A5 treatment once a day. […] The status of hair growth on the back of mice was observed every day and recorded by taking photos. […]

[2] = system: mouse androgenetic hair loss model; experiment: Histological HE staining analysis of skin sections; type: in vivo; settings: DHT model mice treated with Annexin A5 for 2 weeks, FIG. 2
Protocol: as §1
Modeling and administration: Dihydrotestosterone (DHT) was used to induce the formation of the mouse androgenetic hair loss model. In addition to the control group, the other three groups of mice received subcutaneous injection of DHT solution (5 mg/mL) at the neck, 0.01 mL for each, for a total of 2 weeks. The control group was injected with an equal volume of physiological saline. After 2 weeks, all mice were shaved and their back hair was removed using a shaving knife. Then hair removal cream was used to further remove residual hair from the shaved area of the mice. After hair removal, both the control group and the model group were injected daily with […] of PBS in the hair removal area, divided into 10 injection points, with 20 μL per point. The A5-Low group received Annexin A5 treatment once every three days, while the A5-High group received Annexin A5 treatment once a day. The injection method was subcutaneous injection at 10 points in the hair removal area, with 20 μL of Annexin A5 at a concentration of 50 μg/mL injected at each point. The status of hair growth on the back of mice was observed every day and recorded by taking photos. Samples were collected after 16 days.
Tissue sampling: After drug treatment, mice were euthanized by cervical dislocation. […]
Sections were taken for xylene dewaxing and gradient ethanol hydration, and then hematoxylin and eosin staining was performed. […] The next day, an optical microscope was used to observe and record, and the number of hair follicles was statistical analyzed.

[3] = system: transforming growth factor β1 (TGF β-1); experiment: Western Blot of TGF-β1 expression in isolated dermal papillae; type: in vivo, mouse; settings: DHT model mice, A5-Low/A5 High groups, FIG. 4
Protocol: as §1
(§3) Modeling and administration: Dihydrotestosterone (DHT) was used to induce the formation of the mouse androgenetic hair loss model. In addition to the control group, the other three groups of mice received subcutaneous injection of DHT solution (5 mg/mL) at the neck, 0.01 mL for each, for a total of 2 weeks. The control group was injected with an equal volume of physiological saline. After 2 weeks, all mice were shaved and their back hair was removed using a shaving knife. […] The status of hair growth on the back of mice was observed every day and recorded by taking photos. […]
(§4) Sample Treatment: After euthanizing the mice, 1 cm^2 skin tissue was collected, and the hair on the skin surface was removed with a scissors as much as possible. […] The supernatant was collected by high-speed centrifugation, the protein concentration was determined using BCA method, and protein samples were prepared according to Western Blot requirements. […]

androgen receptor (AR) = experiment: Western Blot of androgen receptor expression in isolated dermal papillae; type: in vivo, mouse; settings: DHT model mice, A5-Low/A5 High groups, FIG. 4
Protocol: as §1, §3, §4

[4] = system: Ki67 (cell proliferation marker); experiment: Ki67 immunohistochemical staining of paraffin skin sections; type: in vivo, mouse; settings: DHT model mice after Annexin A5 treatment; FIG. 3
Protocol: as §1, §2

[5] = system: CD31 (vascular angiogenesis marker); experiment: CD31 immunohistochemical staining of paraffin skin sections; type: in vivo, mouse; settings: DHT model mice after Annexin A5 treatment; FIG. 3
Protocol: as §1, §2

## Annexin A5: calcium phospholipid binding protein composed of a single polypeptide chain of 319 amino acids
[1]; A5-Low and A5-High groups
  entry into anagen phase (skin turning black): entered the anagen phase earlier
[1]; subcutaneous Annexin A5 50 μg/mL, 10 points x 20 μL, once every three days or once a day, observed 16 days
  hair growth ability: significantly enhanced hair growth ability
[2]
  dermal thickness: did not affect
  follicle size: did not affect
  number of hair follicle dermal papillae: did not affect
[3]
  TGF-β1 expression in dermal papillae: significant inhibition
Androgen receptor (AR)
  AR expression in dermal papillae: significant inhibition
[4]
  proliferation and survival ability of cells in the hair follicles (Ki67): improved
[5]
  number of capillaries around the dermal papillae (CD31): increased
